The text below walks through data of US20170296545A1, “Composition Of A Ceramic Matrix With A Controlled Release Drug, A Tablet Obtained From The Composition And Methods For Obtaining The Composition And The Tablet” (priority 2009, published 2017).

The conditions of series [1]: cited from earlier work.
Series [2] concerns Wistar rats. The note with it: rat, in vivo.
Procedure: The tests were performed according to Organization for Economic Cooperation and development OECD 423 guide. The methodology consisted of toxicity by evaluating and analyzing of the biochemical and histopathological parameters which resulted from administration thereof.
Series [3] deals with Wistar rats. The note with it: rat, in vivo. As to the method:
In the slices of the liver of the Wistar rats, it was evaluated the presence of hepatic necrosis, proliferation of biliary ducts, proliferation of fibrous conjunctive tissue, and blood extravasation (Cunha, et. al., 2009).
The source holds these as a separate data set.

Like-named read-outs stand apart in the source and are kept apart here.

Regarding `Nc1nc2c(ncn2COCCO)c(=O)[nH]1` [acyclovir], in series [1] (acid or diluted alkaline solutions), the “solubility in acid or diluted alkaline solutions” value was “only slight soluble”. In addition, the solubility in alcohol entry in series [1] (alcohol) was “insoluble”. Besides, the solubility in water entry in series [1] (water) is “poorly soluble”.

Turning to pseudoboehmite, the short-term repeated-dose toxicity result in series [2] is recorded as “low”. Further, the entries for the “histopathological evaluation of the liver” value in series [3] (50 mg/kg), in series [3] (300 mg/kg) and in series [3] (2000 mg/kg) were “tissue integrity”, “a sinusoidal congestion was detected” and “tissue integrity”, respectively. In series [3] (po), the “histopathological evaluation of the livers” value is “there were not observed any changes in the tissue integrity or apparent injuries”. Further, the “macroscopic tests of the organs” value in series [3] (po) was “No abnormal changes”.
